Reference: a melting point compilation (Tetko et al.; mined from patent text by program, amines drawn as free bases though some values may be those of a salt)

**Q.** For `COCC#Cc1ncn2c1CN(C)C(=O)c1c(Cl)cccc1-2`, which melting point is on record?
**A.** The melting point was 154 to 156 °C.

**Q.** Which melting point does the source give for `OC(Cc1ccc(C(F)(F)F)cc1)(Cn1ccnc1)Cn1cncn1` (stereo unspecified) here?
**A.** The melting point was 159 to 161 °C.

**Q.** Which melting point does the source give for `N#CCCNC(=O)c1cccc(-c2ccc3c(c2)C(c2ccc(Cl)cc2Cl)CCO3)c1` (stereo unspecified) here?
**A.** The melting point was 154 to 155 °C.

**Q.** With `CN1C(=O)N(C)P(C)(=S)C1=O` (stereo unspecified) as the molecule, how does the melting point read?
**A.** The melting point was 95 °C.

**Q.** With `CC(C)(C)OC(=O)NCC(=O)Nc1c(C(=O)CC(=O)Nc2nccs2)cccc1C(F)(F)F` as the molecule, how does the melting point read?
**A.** The melting point was 166 °C.

**Q.** With `Cc1c(C(N)=O)sc2cncc(Oc3ccc(Br)cc3)c12` as the molecule, how does the melting point read?
**A.** The melting point was 78 to 80 °C.

**Q.** For `CC(Cl)c1nnc2n1-c1ccc(Cl)cc1C(c1ccccc1)=NC2` (stereo unspecified), which melting point is on record?
**A.** Its melting point is 154 to 156 °C.

**Q.** For `O=[N+]([O-])C1([N+](=O)[O-])COC1`, which melting point is on record?
**A.** The melting point was 70 to 71 °C.

**Q.** Which melting point does the source give for `O=c1n(CCCF)nnn1-c1ccc([N+](=O)[O-])cc1F` here?
**A.** Its melting point is 86 to 89 °C.

**Q.** For `COC(=O)CCC1(NC(=O)c2cc3c4ccccc4n(C(C)=O)c3cn2)C(=O)N(c2ccccc2)c2ccccc21` (stereo unspecified), which melting point is on record?
**A.** Its melting point is 189 to 192 °C.

**Q.** Which melting point does the source give for `CSC(=S)NN=Cc1nc(Cc2ccccc2)[nH]c1C` here?
**A.** The melting point was 207 to 210 °C.

**Q.** With `Cc1cc(C)cc(-c2[nH]c3ccc(C(=O)O)cc3c2CCN(CCCCc2ccc(NS(C)(=O)=O)cc2)C(=O)OCc2ccccc2)c1` as the molecule, how does the melting point read?
**A.** Its melting point is 212 to 213 °C.

**Q.** For `CCSC1=NCC(O)CN1` (stereo unspecified), which melting point is on record?
**A.** The melting point was 106 to 108 °C.

**Q.** For `CCCc1nc2c(N)ncc(Br)c2n1CCOCCN`, which melting point is on record?
**A.** The melting point was 114 to 117 °C.

**Q.** With `CCn1nc(C)c2c1C1=NC(C)CN1C(C)=N2` (stereo unspecified) as the molecule, how does the melting point read?
**A.** The melting point was 145 to 147 °C.

**Q.** Which melting point does the source give for `S=c1cc(-c2ccccc2)c(S)n[nH]1` here?
**A.** Its melting point is 146 to 148 °C.

**Q.** Which melting point does the source give for `COc1ccc2[nH]c3c(c2c1)C[C@@]1(C)C(=O)N(CCBr)C(=O)N1[C@@H]3c1cccc(O)c1` (racemic) here?
**A.** The melting point was 299 to 302 °C.

**Q.** Which melting point does the source give for `Cc1ccc(S(=O)(=O)OCC2COc3ccc(N)c(C=NO)c3O2)cc1` (stereo unspecified) here?
**A.** The melting point was 164 to 166 °C.

**Q.** With `COc1cc(CBr)c(OC)c(CCc2cc(OC)cc(CBr)c2OC)c1` as the molecule, how does the melting point read?
**A.** Its melting point is 158 to 161 °C.

**Q.** Which melting point does the source give for `O=C(O)c1ccc(CCCC2SCC(=O)N2CCC2(O)CCCCC2)cc1Cl` (stereo unspecified) here?
**A.** Its melting point is 104 to 108 °C.

**Q.** With `O=C(O)c1ccc(OCc2ccccc2)c(Cl)c1` as the molecule, how does the melting point read?
**A.** The melting point was 211 to 213 °C.

**Q.** For `CCn1ncc2c3[nH]cnc(=O)c3cnc21`, which melting point is on record?
**A.** Its melting point is 320 to 322 °C.

**Q.** With `CCC1Cc2cc(OCC(=O)O)c(Cl)c(Cl)c2C1O` (stereo unspecified) as the molecule, how does the melting point read?
**A.** The melting point was 121 to 122 °C.

**Q.** Which melting point does the source give for `CC(C)(C(O)c1ccc2c(c1)OCO2)[N+](=O)[O-]` (stereo unspecified) here?
**A.** Its melting point is 88 to 91 °C.

**Q.** For `O=C1CCC(C2CO2)N1Cc1ccccc1Cl` (stereo unspecified), which melting point is on record?
**A.** The melting point was 81 to 83 °C.

**Q.** With `COc1ccc(-c2nc(C(=O)c3ccc([N+](=O)[O-])c(OC)c3)n3ccccc23)cc1` as the molecule, how does the melting point read?
**A.** The melting point was 185 °C.

**Q.** Which melting point does the source give for `COc1ccc(Cc2cnc(NCCSCc3nc[nH]c3C)[nH]c2=O)cn1` here?
**A.** Its melting point is 197 to 198 °C.

**Q.** Which melting point does the source give for `Brc1cccc2c(-c3ccccc3)coc12` here?
**A.** Its melting point is 69.5 to 71.5 °C.

**Q.** With `Cc1nc(C(F)(F)F)ccc1C(=O)C1=C(O)C2CCC(C2)C1=O` (stereo unspecified) as the molecule, how does the melting point read?
**A.** The melting point was 75 to 77 °C.

**Q.** Which melting point does the source give for `CC(C)(C)c1ccc(C=CC2=CC(c3ccc(C(C)(C)C)cc3)N(c3ccccc3)N2)cc1` (stereo unspecified) here?
**A.** The melting point was 188 to 192 °C.

**Q.** Which melting point does the source give for `N#CC(C(=O)Nc1ccccc1)C(=O)c1nn(-c2ccccc2)c2c1COc1ccccc1-2` (stereo unspecified) here?
**A.** The melting point was 280 to 282 °C.

**Q.** With `Cc1nccc2c1[nH]c1cc(O)ccc12` as the molecule, how does the melting point read?
**A.** Its melting point is 248 °C.

**Q.** With `CC(=O)OC1C(N2CCCCC2)CC2C3CCC4CCC(O)CC4(C)C3CCC21C` (stereo unspecified) as the molecule, how does the melting point read?
**A.** The melting point was 239 to 240 °C.

**Q.** With `COC(=O)[C@@H]1C[C@H](OC(=O)c2ccccc2)CN1C(=O)OC(C)(C)C` as the molecule, how does the melting point read?
**A.** The melting point was 89 to 90 °C.

**Q.** Which melting point does the source give for `Cc1cc(I)cc2[nH]c(=O)oc12` here?
**A.** Its melting point is 248 to 250 °C.

**Q.** Which melting point does the source give for `Brc1cccc2nonc12` here?
**A.** Its melting point is 92 to 94 °C.

**Q.** For `COC(=O)Nc1cccc2c1C(=O)c1c-2n[nH]c1-c1ccc(OC)cc1`, which melting point is on record?
**A.** Its melting point is over 300 °C.

**Q.** For `COC(=O)c1ccc2c(c1)COc1ccc(/C=C/c3ccc4c(n3)CCCC4)cc1C2SCCC(=O)O` (stereo unspecified), which melting point is on record?
**A.** Its melting point is 121 to 123 °C.

**Q.** Which melting point does the source give for `O=C(Cc1cccc2ccccc12)Nc1cc([C@H]2C[C@@H](NC(=O)CC3CC3)C2)[nH]n1` here?
**A.** Its melting point is 93.2 °C.

**Q.** Which melting point does the source give for `CC(=O)c1ccc2c(c1)Cc1cc(C#N)ccc1-2` here?
**A.** The melting point was 182 to 188 °C.

**Q.** For `O=C(NN=C(c1ccccc1)c1ccncc1)c1cccnc1`, which melting point is on record?
**A.** Its melting point is 74 °C.

**Q.** Which melting point does the source give for `CC1(C)C(=O)N(c2ccc([N+](=O)[O-])c(C(F)(F)F)c2)C(=O)N1CCCCCCN1C(=O)N(c2ccc([N+](=O)[O-])c(C(F)(F)F)c2)C(=O)C1(C)C` here?
**A.** Its melting point is 187 to 188 °C.

**Q.** Which melting point does the source give for `COc1cccc(C=O)c1OS(=O)(=O)C(F)(F)F` here?
**A.** Its melting point is 29.5 to 31.5 °C.

**Q.** Which melting point does the source give for `Nc1nc2c(nnn2COC(CO)CO)c(=O)[nH]1` here?
**A.** The melting point was 233 to 234 °C.

**Q.** For `Cc1noc(NC(=O)N2CCN(c3nccc(-c4ccc(F)cc4F)n3)CC2)c1C`, which melting point is on record?
**A.** Its melting point is 197 to 198 °C.

**Q.** Which melting point does the source give for `N#CC1CN(C(=O)[C@H](NC(=O)c2c[nH]c3ncc(-c4ccc(N5CCOCC5)cc4)nc23)C2CC2)C1` here?
**A.** Its melting point is 186 to 192 °C.

**Q.** With `COC(=O)CCCC#Cc1cc(Cl)ccc1NS(=O)(=O)c1ccc2c(c1)CCC(=O)N2` as the molecule, how does the melting point read?
**A.** The melting point was 53 to 57 °C.

**Q.** With `CCOC(=O)C(=CNC1=NN(c2ccc(Cl)cc2)CC1)C(=O)OCC` as the molecule, how does the melting point read?
**A.** Its melting point is 159 to 162 °C.

**Q.** With `O=C(O)CCCCCCN(Cc1ccccc1)C(=O)c1cn2c3c(cccc13)CCC2` as the molecule, how does the melting point read?
**A.** Its melting point is 45 to 47 °C.

**Q.** Which melting point does the source give for `O=C(Nc1cc(-c2ccnc3c(C(=O)c4cccs4)cnn23)ccc1F)OCCCl` here?
**A.** Its melting point is 194 to 196 °C.

**Q.** With `Cc1ccc2c3c(c(=O)oc2c1)CN(CCN1CC2CCCC(C2)C1)CC3` as the molecule, how does the melting point read?
**A.** The melting point was 150 to 152 °C.

**Q.** Which melting point does the source give for `CCOCc1nc2c(N)nc3ccccc3c2n1CC1(O)CCCC1` here?
**A.** Its melting point is 156 to 158 °C.

**Q.** With `Cc1c(Br)cccc1NCc1c(C(=O)O)sc2ccccc12` as the molecule, how does the melting point read?
**A.** Its melting point is 120 to 121 °C.

**Q.** Which melting point does the source give for `COC(=O)CCc1ccc(N2CCN(c3ccc4c(c3)CCC4=O)C2=O)cc1` here?
**A.** The melting point was 204 to 206 °C.

**Q.** With `Cc1cc(NCc2ccc(-c3ccccc3-c3nnn(C(c4ccccc4)(c4ccccc4)c4ccccc4)n3)cc2)c(I)c(C)n1` as the molecule, how does the melting point read?
**A.** Its melting point is 209 to 211 °C.

**Q.** Which melting point does the source give for `O=C(O)c1coc(Cn2cc(C3c4ccccc4C=Cc4ccccc43)c(=S)[nH]c2=O)n1` here?
**A.** Its melting point is 200 °C.

**Q.** Which melting point does the source give for `CC(=O)OCC1OC(n2cc(C(Br)=CBr)c(=O)[nH]c2=O)CC1OC(C)=O` (stereo unspecified) here?
**A.** Its melting point is 79 to 81 °C.

**Q.** With `CCCc1c(C#N)ccc(NC(=NC#N)Nc2ccccc2Cl)c1O` as the molecule, how does the melting point read?
**A.** The melting point was 159 to 160 °C.

**Q.** Which melting point does the source give for `COc1ccc2sc(CC3(O)C4CC5CC(C4)CC3C5)nc2c1` (stereo unspecified) here?
**A.** The melting point was 140 to 142 °C.

**Q.** With `CN(C)C=Cc1cccnc1C#N` as the molecule, how does the melting point read?
**A.** Its melting point is 71.5 to 72 °C.

**Q.** Which melting point does the source give for `Cc1ccc2c(c1)oc1c(C(=O)NN3CCCC3)nn(-c3ccc(Cl)cc3Cl)c12` here?
**A.** Its melting point is 90 to 92 °C.

**Q.** Which melting point does the source give for `Clc1ccc2c(c1)C(c1ccccc1)=NCc1n[nH]cc1-2` here?
**A.** The melting point was 241 to 243 °C.

**Q.** For `CC(=O)c1ccccc1NC(c1c(Cl)cccc1Cl)C1CC1` (stereo unspecified), which melting point is on record?
**A.** The melting point was 116 °C.

**Q.** For `CC(=O)Nc1ccc2oc(-c3ccc(OCc4ccccc4)cc3)c(O)c(=O)c2c1`, which melting point is on record?
**A.** Its melting point is 255 to 258 °C.

**Q.** With `CCN(CC)C(=S)c1cccc(F)c1[Si](C)(C)C` as the molecule, how does the melting point read?
**A.** The melting point was 71 to 73 °C.

**Q.** Which melting point does the source give for `O=C(O)c1snc(-c2cccc(Cl)c2)c1C(=O)O` here?
**A.** Its melting point is 185 to 186 °C.

**Q.** With `O=C(NC(=O)c1ccccc1Cl)C(=C1NCCCS1)[N+](=O)[O-]` as the molecule, how does the melting point read?
**A.** The melting point was 130 to 131 °C.

**Q.** Which melting point does the source give for `O=C(Nc1ccc2oc3c(c2c1)CCCC3)c1ccc(Cl)cc1` here?
**A.** The melting point was 214 °C.

**Q.** For `COc1cc(OC)nc(-n2c(S(C)(=O)=O)nc3ccccc32)n1`, which melting point is on record?
**A.** The melting point was 114 to 117 °C.

**Q.** Which melting point does the source give for `CC(C)n1cc(-c2nc(C#N)c(N)nc2-c2ccc(F)cc2)ccc1=O` here?
**A.** The melting point was 207 °C.

**Q.** With `O=C(O)[C@H](Cc1ccccc1)Nc1c(NCc2ccccc2)c(=O)c1=O` as the molecule, how does the melting point read?
**A.** The melting point was 215 to 216 °C.
